Measured values taken from article PMC12584836, “Rubus caesius leaves and stems in antiaging skin care products: antityrosinase, anticollagenase, antimicrobial activity, and transdermal distribution of main phenolic acids” (Pharmaceutical Biology, 2025).
Marks after values point to notes of the source that are not given here.

Tests used:
[1] = Molybdenum reduction (phosphomolybdenum) assay; format: biochemical
Description: (§1) Water and ethanol extracts from Rubus caesius leaves and stems were freshly prepared by dissolving the dry extract in water. The samples were tested at concentrations ranging from 1 to 1000 µg/mL. Ascorbic acid was used as the reference standard in both assays. All measurements were performed using a 96-well microplate reader (Epoch, BioTek System, Winooski, VT, USA). IC50 values for each extract were calculated using the GraphPad Prism 9 software (version 9.0.0, GraphPad Software, San Diego, CA, USA). Each test was performed in triplicate and repeated three times (n = 9).
The total reducing power of water and ethanol extracts from Rubus caesius was estimated according to the phosphomolybdenum method described by Prieto et al. ([1999]), with modifications by Hering et al. ([2025]). The samples (extract or standard) were mixed with the reagent solution and incubated at 90 °C for 90 min. After cooling, 250 µL of each reaction mixture was transferred to a 96-well microplate reader (Epoch, BioTek System, Winooski, VT, USA), and absorbance was measured at 700 nm. The negative control consisted of the reaction mixture and water.

[2] = ABTS radical scavenging assay; format: biochemical
Description: as §1
The antioxidant activity of the Rubus caesius extracts was determined using ABTS radical scavenging method as described by Thring et al. ([2009]), with minor modifications according to Hering et al. ([2025]). The reaction mixture containing extracts or standard were incubated in the dark for 20 min at 30 °C. After incubation, absorbance was measured at 750 nm. The negative control sample consisted of the reaction mixture and water instead of extract or standard.

[3] = Skin permeation from hydrogels in Franz diffusion cells; format: in vitro ADME; conditions: porcine skin
Description: Permeation experiments were conducted using Franz diffusion cells (Phoenix DB-6, ABL&E-JASCO, Wien, Austria), with a donor chamber area of 1 cm^2 and 10 mL acceptor chamber filled with phosphate-buffered saline (PBS, pH 7.4). The system was maintained at 37.0 ± 0.5 °C, and the acceptor solutions were continuously stirred.
Skin samples were wrapped in aluminum foil, frozen at −20 °C for no longer than three months. […] Skin impedance was measured by immersing the probe tips in the donor and acceptor chambers filled with PBS.
One gram of each hydrogel was applied to the donor chamber. All chambers were sealed with plastic stoppers to minimize evaporation. […] Phenolic acid concentrations were determined by HPLC.
J-shaped profiles and the following equations were used: (1) A=JSS(t−LT) where A is the cumulative amount permeated (μg·cm^−2) of tested phenolic acids permeating into the receptor compartment; JSS is the steady-state flux (μg·cm^−2·h^−1); t is the time (h), and LT is the lag time (h).
The steady-state flux was estimated from the slope of the linear portion of the plot of cumulative mass in the acceptor phase over time. The lag time (LT) was determined from the x-intercept of the linear portion of the plot of cumulative mass in the acceptor phase over time and was used to calculate the […] (KP) as follows: (2) KP=JSS/C where C is the concentration in the donor phase.

[4] = Skin accumulation after 24 h permeation; format: in vitro ADME; conditions: after 24-h penetration; HL-E application; porcine skin
Description: Following incubation, samples were homogenized (IKA®T18 digital ULTRA TURRAX, Germany) for 3 min and centrifuged at 3500 rpm for 5 min. The resulting supernatants were analyzed by HPLC spectrophotometry, with methanol used as a blank. Accumulated phenolic acids were expressed as amount (µg) per gram of skin tissue (µg·g skin^−1).

[5] = biological target: Collagenase from Clostridium histolyticum; assay: Collagenase inhibition assay (FALGPA substrate); format: biochemical
Description: Preparation of the extracts and calculation of IC50 values were carried out as described in the Antioxidant tests section. The effect of Rubus caesius extracts on collagenase and tyrosinase activity was estimated using the spectrophotometric method in a 96-well microplate reader (Epoch, BioTek System, Winooski, VT, USA).
The addition of the substrate started the reaction. Changes in absorbance were monitored every 20 s for a total of 20 min. The blank sample contained buffer, substrate, and the appropriate concentration of extract or standard. The negative control sample contained water instead of extract or standard. All tests were performed in triplicate and repeated three times (n = 9).
The effect of Rubus caesius extracts on collagenase activity was assessed based on the method described by Thring et al. ([2009]), with modifications introduced by Hering et al. ([2023]). FALGPA was used as the substrate, and oleanolic acid served as the positive control. Reaction mixtures containing the extract (0–400 µg/mL) were pre-incubated for 15 min. The reaction was initiated by the addition of 0.8 mM FALGPA, and absorbance was continuously measured at 335 nm. The reaction buffer was composed of tricine (50 mM, pH 7.5) with 400 mM NaCl and 10 mM CaCl2.

Row | Structure (SMILES) | Phenolic acids concentration in the acceptor fluid (cumulative mass) ([3]; from hydrogel HL-E, 3 h) | Phenolic acids concentration in the acceptor fluid (cumulative mass) ([3]; from hydrogel HL-E, 5 h) | Phenolic acids concentration in the acceptor fluid (cumulative mass) ([3]; from hydrogel HL-E, 8 h) | Phenolic acids concentration in the acceptor fluid (cumulative mass) ([3]; from hydrogel HL-E, 24 h) | D·10^4, diffusion coefficient ([3]; from hydrogel HL-E) | JSS, steady-state flux ([3]; from hydrogel HL-E) | LT, lag time ([3]; from hydrogel HL-E) | Q%24h, percentage of applied dose in acceptor phase after 24 h ([3]; from hydrogel HL-E) | Phenolic acids concentration in the acceptor fluid (cumulative mass) ([3]; from hydrogel HS-E, 24 h) | Phenolic acids concentration in the acceptor fluid (cumulative mass) ([3]; from hydrogel HS-E, 8 h) | Q%24h, percentage of applied dose in acceptor phase after 24 h ([3]; from hydrogel HS-E) | further results
1 | O=C1O[C@H]([C@@H](O)CO)C(O)=C1O [Ascorbic acid, ascorbic acid] | – | – | – | – | – | – | – | – | – | – | – | Molybdenum reduction IC50 [1]: 78.25 ± 1.25 µg/mL; ABTS radical scavenging IC50 [2]: 14.77 ± 0.5 µg/mL
2 | O=C(O)/C=C/c1ccc(O)c(O)c1 [Caffeic acid, caffeic acid] | 2.58 ± 0.20^a µg/cm^2 | 2.84 ± 0.07^a µg/cm^2 | 3.30 ± 0.13^a µg/cm^2 | 7.83 ± 0.83^a µg/cm^2 | 3.41 ± 0.28 cm^2/h | 0.84 ± 0.02 µg/cm^2·h | 1.22 ± 0.09 h | 0.68 ± 0.07% | not permeating at all | – | – | –
3 | O=C(O)/C=C/c1ccc(O)cc1 [Coumaric acid, coumaric acid] | 4.97 ± 0.09^a µg/cm^2 | 7.04 ± 0.75^a µg/cm^2 | 8.95 ± 1.00^a µg/cm^2 | 12.45 ± 0.26^a µg/cm^2 | 9.27 ± 0.73 cm^2/h | 1.35 ± 0.17 µg/cm^2·h | – | 2.62 ± 0.05% | 5.93 ± 0.08^b µg/cm^2 | 5.10 ± 0.11^b µg/cm^2 | 5.37 ± 0.07% | –
4 | O=C(O)c1cc(O)c(O)c(O)c1 [Gallic acid, gallic acid] | 6.18 ± 0.35^a µg/cm^2 | 10.24 ± 0.97^a µg/cm^2 | 16.09 ± 1.19^a µg/cm^2 | 49.62 ± 2.18^a µg/cm^2 | 25.73 ± 1.64 cm^2/h | 2.08 ± 0.08 µg/cm^2·h | 0.16 ± 0.02 h | 5.78 ± 0.25% | 7.19 ± 0.47^b µg/cm^2 | 4.69 ± 0.19^b µg/cm^2 | 4.78 ± 0.35% | Accumulation of phenolic acid in the skin [4]: 70.62 ± 4.06 µg/g skin; Phenolic acids concentration in the acceptor fluid (cumulative mass) ([3]; from hydrogel HL-E, 1 h): 3.64 ± 0.12^a µg/cm^2; Phenolic acids concentration in the acceptor fluid (cumulative mass) ([3]; from hydrogel HL-E, 2 h): 4.54 ± 0.47^a µg/cm^2; Phenolic acids concentration in the acceptor fluid (cumulative mass) ([3]; from hydrogel HL-E, 24 h, listed as gallic acid): 49.62 ± 2.18 µg/cm^2; Q%24h, percentage of applied dose in acceptor phase after 24 h ([3]; from hydrogel HL-E, listed as gallic acid): 5.78%; Phenolic acids concentration in the acceptor fluid (cumulative mass) ([3]; from hydrogel HS-E, 5 h): 3.95 ± 0.18^b µg/cm^2; D·10^4, diffusion coefficient ([3]; from hydrogel HS-E): 2.01 ± 0.09 cm^2/h; JSS, steady-state flux ([3]; from hydrogel HS-E): 0.88 ± 0.04 µg/cm^2·h; LT, lag time ([3]; from hydrogel HS-E): 2.08 ± 0.09 h
5 | O=C(O)c1ccc(O)c(O)c1 [Protocatechuic acid, protocatechuic acid] | 5.86 ± 0.28^a µg/cm^2 | 8.59 ± 0.65^a µg/cm^2 | 11.94 ± 1.91^a µg/cm^2 | 37.95 ± 2.96^a µg/cm^2 | 6.57 ± 0.77 cm^2/h | 2.10 ± 0.17 µg/cm^2·h | 0.63 ± 0.08 h | 4.49 ± 0.35% | 4.57 ± 0.30^b µg/cm^2 | 3.84 ± 0.18^b µg/cm^2 | 2.45 ± 0.16% | Accumulation of phenolic acid in the skin [4]: 61.46 ± 12.57 µg/g skin; Phenolic acids concentration in the acceptor fluid (cumulative mass) ([3]; from hydrogel HL-E, 2 h): 3.28 ± 0.31^a µg/cm^2; Phenolic acids concentration in the acceptor fluid (cumulative mass) ([3]; from hydrogel HL-E, 24 h, listed as protocatechuic acid): 37.95 ± 2.96 µg/cm^2; Q%24h, percentage of applied dose in acceptor phase after 24 h ([3]; from hydrogel HL-E, listed as protocatechuic acid): 4.49%; Phenolic acids concentration in the acceptor fluid (cumulative mass) ([3]; from hydrogel HS-E, 5 h): 3.04 ± 0.03^a µg/cm^2; D·10^4, diffusion coefficient ([3]; from hydrogel HS-E): 1.91 ± 0.09 cm^2/h; JSS, steady-state flux ([3]; from hydrogel HS-E): 0.73 ± 0.04 µg/cm^2·h; LT, lag time ([3]; from hydrogel HS-E): 2.19 ± 0.10 h
6 | COc1cc(C(=O)O)ccc1O [Vanillic acid, vanillic acid] | 0.49 ± 0.25^a µg/cm^2 | 1.76 ± 0.82^a µg/cm^2 | 3.92 ± 1.06^a µg/cm^2 | 15.61 ± 2.42^a µg/cm^2 | 2.68 ± 0.19 cm^2/h | 0.54 ± 0.03 µg/cm^2·h | 1.55 ± 0.13 h | 4.77 ± 0.29% | 0.95 ± 0.15^b µg/cm^2 | – | 3.28 ± 0.52% | Q%24h, percentage of applied dose in acceptor phase after 24 h ([3]; from hydrogel HL-E, listed as vanillic acid): 4.77%
7 | CC1(C)CC[C@]2(C(=O)O)CC[C@]3(C)C(=CC[C@@H]4[C@@]5(C)CC[C@H](O)C(C)(C)[C@@H]5CC[C@]43C)[C@@H]2C1 [oleanolic acid] | – | – | – | – | – | – | – | – | – | – | – | IC50 of collagenase inhibition [5]: 31.72 ± 0.65 µg/mL
